Experimental data taken from article PMC8226862, “Design, Synthesis and Anticancer Activity of a New Series of N-aryl-N′-[4-(pyridin-2-ylmethoxy)benzyl]urea Derivatives” (Molecules, 2021).

Legend:
[1] = tested on: A549 (non-small cell lung cancer cell line); assay: MTT antiproliferative assay, A549; format: cell-based, human; conditions: 96 h incubation
Method: (§1) The target compounds were evaluated for their antiproliferative activity against different human cancer cell lines, including A549 (non-small cell lung cancer cell line), MCF-7 (breast cancer cell line), HCT116 (colon cancer cell line), PC-3 (prostate cancer cell line) and HL7702 (human liver normal cell line) by using the MTT assay with sorafenib as the control drug.
(§2) The antiproliferative activities of target compounds were determined using a standard MTT assay. Exponentially growing cells A549 (1.5 × 10^3 cells/well), MCF-7 (2.2 × 10^3 cells/well), HCT-116 (800 cells/well), PC-3 (2.0 × 10^3 cells/well) and HL7702 (5.0 × 10^3 cells/well) were seeded into 96-well plates and incubated for 24 h to allow the cells to attach. Then, a fresh medium containing various concentrations of the candidate compounds was added to each well. The cells were then incubated for 96 h, thereafter MTT assays were performed, and cell viability was assessed at 570 nm by a microplate reader (ThermoFisher Scientific (Shanghai) Instrument Co., Ltd., Shanghai, China). The optical densities (OD) at 570 nm were measured, and the IC50 of the target compounds was calculated by using GraphPad Prism 5.0 software to perform nonlinear fitting with the cell survival rate under different concentrations of the compounds.

[2] = tested on: HCT116 (colon cancer cell line); assay: MTT antiproliferative assay, HCT116; format: cell-based, human; conditions: 96 h incubation
Method: as §1, §2

[3] = tested on: MCF-7 (breast cancer cell line); assay: MTT antiproliferative assay, MCF7; format: cell-based, human; conditions: 96 h incubation
Method: as §1, §2

[4] = tested on: PC-3 (prostate cancer cell line); assay: MTT antiproliferative assay, PC3; format: cell-based, human; conditions: 96 h incubation
Method: as §1, §2

[5] = tested on: HL7702 (human liver normal cell line); assay: MTT cytotoxicity assay, HL7702; format: cell-based; conditions: L02, HL7702 normal liver cells, 96 h incubation
Method: as §1, §2

MCF-7 cells = assay: Cell cycle analysis by flow cytometry (PI staining); format: cell-based, human; conditions: for percentage of cells in the G2/M phase: 72 h
Method: The effect of compound 9b on the cell cycle was assayed.
[…] After an incubation period, the cells were collected, centrifuged, and fixed with ice-cold ethanol (70%). The cells were then treated with buffer containing RNAse A and 0.1% Triton X-100 and then stained with the propidium iodide (PI). The samples were analyzed on a flow cytometer (Becton, Dickinson, Franklin Lakes, NJ, USA). Data were analyzed using Flowjo software v9.0.

SMILES | IC50 ([1]; Homo sapiens, A549, 96 h) | IC50 ([2]; Homo sapiens, HCT-116, 96 h) | IC50 ([3]; Homo sapiens, MCF7, 96 h) | IC50 ([4]; Homo sapiens, 96 h) | melting point | IC50 [5] | IC50 [1] | IC50 [2] | IC50 [3] | IC50 [4] | percentage of cells in the G2/M phase (MCF-7 cells; MCF-7, 2.5 μM) | percentage of cells in the G2/M phase (MCF-7 cells; MCF-7, 5 μM) | percentage of cells in the G2/M phase (MCF-7 cells; MCF-7, 10 μM) | percentage of cells in the G2/M phase (MCF-7 cells; MCF-7, 20 μM) | effect on the cell cycle (MCF-7 cells; MCF-7, 2.5-20 μM, concentration-dependent)
COc1ccc(NC(=O)NCc2ccc(OCc3nccc(OCC(F)(F)F)c3C)c(OC)c2)cc1 [8e, 1-(3-methoxy-4-((3-methyl-4-(2,2,2-trifluoroethoxy)pyridin-2-yl)methoxy)benzyl)-3-(4-methoxyphenyl)urea] | 29.8 ± 5.09 µM | 28.8 ± 3.11 µM | > 50 µM | > 50 µM | 179.5 to 180.3 °C | > 50 µM |  |  |  |  |  |  |  |  | 
COc1ccc(CNC(=O)NCc2ccc(OCc3nccc(OCC(F)(F)F)c3C)c(OC)c2)cc1 [8g, 1-(3-methoxy-4-((3-methyl-4-(2,2,2-trifluoroethoxy)pyridin-2-yl)methoxy)benzyl)-3-(4-methoxybenzyl)urea] | > 50 µM | 7.84 ± 1.4 µM | > 50 µM | > 50 µM | 153 to 154.2 °C | > 50 µM |  |  |  |  |  |  |  |  | 
COc1cc(CN(C(=O)Nc2cccc(C(F)(F)F)c2)C2CCN(C)CC2)ccc1OCc1nccc(OCC(F)(F)F)c1C [9d, 1-(3-methoxy-4-((3-methyl-4-(2,2,2-trifluoroethoxy)pyridin-2-yl)methoxy)benzyl)-1-(1-methylpiperidin-4-yl)-3-(3-(trifluoromethyl)phenyl)urea] | < 5 µM | < 3 µM | < 3 µM | < 5 µM | 160.4 to 162.2 °C | > 50 µM | 3.17 ± 0.22 µM | 2.56 ± 0.26 µM | 2.63 ± 0.08 µM | 3.62 ± 0.27 µM |  |  |  |  | 
COc1cc(CNC(=O)Nc2cccc(C(F)(F)F)c2)ccc1OCc1nccc(OCC(F)(F)F)c1C [8d, 1-(3-methoxy-4-((3-methyl-4-(2,2,2-trifluoroethoxy)pyridin-2-yl)methoxy)benzyl)-3-(3-(trifluoromethyl)phenyl)urea] | 26.5 ± 5.66 µM | 9.44 ± 1.22 µM | > 50 µM | > 50 µM | 153.2 to 154.2 °C | > 50 µM |  |  |  |  |  |  |  |  | 
CCOc1ccc(CNC(=O)N(Cc2ccc(OCc3nccc(OCC(F)(F)F)c3C)c(OC)c2)C2CCN(C)CC2)cc1 [9g, 3-(4-ethoxybenzyl)-1-(3-methoxy-4-((3-methyl-4-(2,2,2-trifluoroethoxy)pyridin-2-yl)methoxy)benzyl)-1-(1-methylpiperidin-4-yl)urea] | 6.04 ± 0.41 µM | < 3 µM | 4.23 ± 0.47 µM | 6.25 ± 0.43 µM | 119 to 121.2 °C | > 50 µM |  | 2.93 ± 0.26 µM |  |  |  |  |  |  | 
COc1cc(CN(C(=O)Nc2cccc([N+](=O)[O-])c2)C2CCN(C)CC2)ccc1OCc1nccc(OCC(F)(F)F)c1C [9f, 1-(3-methoxy-4-((3-methyl-4-(2,2,2-trifluoroethoxy)pyridin-2-yl)methoxy)benzyl)-1-(1-methylpiperidin-4-yl)-3-(3-nitrophenyl)urea] | 6.09 ± 0.29 µM | 5.18 ± 0.33 µM | 3.18 ± 0.3 µM | 7.39 ± 0.63 µM | 157.5 to 159.1 °C | > 50 µM |  |  |  |  |  |  |  |  | 
CCOc1ccc(CNC(=O)NCc2ccc(OCc3nccc(OCC(F)(F)F)c3C)c(OC)c2)cc1 [8h, 1-(4-ethoxybenzyl)-3-(3-methoxy-4-((3-methyl-4-(2,2,2-trifluoroethoxy)pyridin-2-yl)methoxy)benzyl)urea] | 10.9 ± 2.02 µM | 23.3 ± 3.12 µM | > 50 µM | > 50 µM | 148.9 to 149.9 °C | > 50 µM |  |  |  |  |  |  |  |  | 
COc1cc(CNC(=O)Nc2ccc(F)c(Cl)c2)ccc1OCc1nccc(OCC(F)(F)F)c1C [8b, 1-(3-chloro-4-fluorophenyl)-3-(3-methoxy-4-((3-methyl-4-(2,2,2-trifluoroethoxy)pyridin-2-yl)methoxy)benzyl)urea] | 17.7 ± 5.65 µM | 9.33 ± 1.38 µM | 11 ± 1.68 µM | 29.1 ± 5.81 µM | 167.8 to 169.1 °C | > 50 µM |  |  |  |  |  |  |  |  | 
COc1cc(CNC(=O)Nc2ccc(OC(F)(F)F)cc2)ccc1OCc1nccc(OCC(F)(F)F)c1C [8a, 1-(3-methoxy-4-((3-methyl-4-(2,2,2-trifluoroethoxy)pyridin-2-yl)methoxy)benzyl)-3-(4-(trifluoromethoxy)phenyl)urea] | 5.3 ± 1.45 µM | 7.25 ± 0.87 µM | > 50 µM | > 50 µM | 158.8 to 159.3 °C | > 50 µM |  |  |  |  |  |  |  |  | 
COc1ccc(NC(=O)N(Cc2ccc(OCc3nccc(OCC(F)(F)F)c3C)c(OC)c2)C2CCN(C)CC2)cc1 [9c, 1-(3-methoxy-4-((3-methyl-4-(2,2,2-trifluoroethoxy)pyridin-2-yl)methoxy)benzyl)-3-(4-methoxyphenyl)-1-(1-methylpiperidin-4-yl)urea] | 15.8 ± 1.51 µM | 12.9 ± 1.59 µM | 4.65 ± 0.73 µM | 12.3 ± 1.75 µM | 179.1 to 180.8 °C | > 50 µM |  |  |  |  |  |  |  |  | 
COc1cc(CNC(=O)Nc2cccc([N+](=O)[O-])c2)ccc1OCc1nccc(OCC(F)(F)F)c1C [8f, 1-(3-methoxy-4-((3-methyl-4-(2,2,2-trifluoroethoxy)pyridin-2-yl)methoxy)benzyl)-3-(3-nitrophenyl)urea] | 12.4 ± 0.6 µM | 13.3 ± 2.78 µM | 13.3 ± 2.27 µM | 15.9 ± 0.73 µM | 168.9 to 170.5 °C | > 50 µM |  |  |  |  |  |  |  |  | 
COc1cc(CN(C(=O)Nc2ccc(C(F)(F)F)cc2)C2CCN(C)CC2)ccc1OCc1nccc(OCC(F)(F)F)c1C [9b, 1-(3-methoxy-4-((3-methyl-4-(2,2,2-trifluoroethoxy)pyridin-2-yl)methoxy)benzyl)-1-(1-methylpiperidin-4-yl)-3-(4-(trifluoromethyl)phenyl)urea] | < 5 µM | < 3 µM | < 3 µM | < 5 µM | 138.4 to 140.5 °C | > 50 µM | 4.93 ± 0.46 µM | 2.9 ± 0.16 µM | 2.56 ± 0.07 µM | 3.36 ± 0.17 µM | 16.7% | 23.5% | 27.7% | 39.3% | obvious G2/M arrest
COc1cc(CNC(=O)NCc2ccc(N(C)C)cc2)ccc1OCc1nccc(OCC(F)(F)F)c1C [8i, 1-(4-(dimethylamino)benzyl)-3-(3-methoxy-4-((3-methyl-4-(2,2,2-trifluoroethoxy)pyridin-2-yl)methoxy)benzyl)urea] | 9.85 ± 4.4 µM | 10.9 ± 2.85 µM | > 50 µM | > 50 µM | 159.4 to 161.4 °C | > 50 µM |  |  |  |  |  |  |  |  | 
COc1cc(CN(C(=O)Nc2ccc(OC(F)(F)F)cc2)C2CCN(C)CC2)ccc1OCc1nccc(OCC(F)(F)F)c1C [9a, 1-(3-methoxy-4-((3-methyl-4-(2,2,2-trifluoroethoxy)pyridin-2-yl)methoxy)benzyl)-1-(1-methylpiperidin-4-yl)-3-(4-(trifluoromethoxy)phenyl)urea] | 17.5 ± 2.95 µM | 4.41 ± 0.14 µM | < 3 µM | < 5 µM | 127.3 to 129.4 °C | > 50 µM |  |  | 2.59 ± 0.29 µM | 4.1 ± 0.19 µM |  |  |  |  | 
CNC(=O)c1cc(Oc2ccc(NC(=O)Nc3ccc(Cl)c(C(F)(F)F)c3)cc2)ccn1 [sorafenib, reference compound] | 6.16 ± 0.46 µM | 3.88 ± 0.36 µM | 3.54 ± 0.19 µM | 5.26 ± 0.46 µM |  | > 50 µM |  |  |  |  |  |  |  |  | 
COc1cc(CNC(=O)Nc2ccc(C(F)(F)F)cc2)ccc1OCc1nccc(OCC(F)(F)F)c1C [8c, 1-(3-methoxy-4-((3-methyl-4-(2,2,2-trifluoroethoxy)pyridin-2-yl)methoxy)benzyl)-3-(4-(trifluoromethyl)phenyl)urea] | < 5 µM | 11.4 ± 3.28 µM | > 50 µM | > 50 µM | 169.9 to 171 °C | > 50 µM | 4.88 ± 1.94 µM |  |  |  |  |  |  |  | 
COc1cc(CN(C(=O)Nc2ccc(F)c(Cl)c2)C2CCN(C)CC2)ccc1OCc1nccc(OCC(F)(F)F)c1C [9e, 3-(3-chloro-4-fluorophenyl)-1-(3-methoxy-4-((3-methyl-4-(2,2,2-trifluoroethoxy)pyridin-2-yl)methoxy)benzyl)-1-(1-methylpiperidin-4-yl)urea] | 5.48 ± 4.36 µM | 5.82 ± 0.21 µM | < 3 µM | < 5 µM | 176.2 to 177.7 °C | > 50 µM |  |  | 2.56 ± 0.16 µM | 4.53 ± 0.33 µM |  |  |  |  | 
